The numbers were not newly measured in US10813957B2, “Engineered oncolytic viruses containing hyper-binding sites to sequester and suppress activity of oncogenic transcription factors as a novel treatment for human cancer” (priority 2016, dated 2020), which cites them from elsewhere.

The conditions of the data set: background statement.

Each structure is given as a SMILES string.

As for `NC(=O)OC[C@H]1c2c(O)cc(C=O)cc2N2CC3N[C@@H]3[C@]1(O)O2` (stereo partly shown) [FR900482], the toxicity in humans result was “high toxicity”.
